Source: US9770025B2, “Fungicidal compositions” (Syngenta Participations AG, priority 2013, dated 2017)
Values joined by “and” are separate entries in the source; they are usually repeats but may differ in a detail not shown here. Identical values can stand only once. Like-named read-outs stand apart in the source and are kept apart here.

Legend:
Type in all cases: cell-based
Alternaria solani = Alternaria solani liquid culture growth inhibition; conditions: for inhibition at 0.0008 ppm: read-out: Compound 1.001 inhibition (%), 0.0008 ppm; for inhibition at 0.0016 ppm: read-out: Compound 1.001 inhibition (%), 0.0016 ppm; for inhibition at 0.0031 ppm: read-out: Compound 1.001 inhibition (%), 0.0031 ppm
Procedure: (§1) Liquid Culture Tests in Well Plates
Mycelia fragments or conidia suspensions of a fungus, prepared either freshly from liquid cultures of the fungus or from cryogenic storage, were directly mixed into nutrient broth. DMSO solutions of the test compound (max. 10 mg/ml) was diluted with 0.025% Tween20 by factor 50 and 10 μl of this solution was pipetted into a microtiter plate (96-well format). […] The test plates were incubated in the dark at 24° C. and 96% rh. The inhibition of fungal growth was determined photometrically and visually after 2-4 days, depending on the pathosystem, and percent antifungal activity relative to the untreated check was calculated.
Alternaria solanil/Liquid Culture:
(§2) Conidia of the fungus from cryogenic storage were directly mixed into nutrient broth (PDB potato dextrose broth). After placing a (DMSO) solution of test compound into a microtiter plate (96-well format), the nutrient broth containing the fungal spores was added.

[1] = tested on: Monographella nivalis (Microdochium nivale); assay: Monographella nivalis (Microdochium nivale) liquid culture growth inhibition
Procedure: as §1
(§3) Mycelia fragments or conidia suspensions of a fungus, prepared either freshly from liquid cultures of the fungus or from cryogenic storage, were directly mixed into nutrient broth. DMSO solutions of the test compound (max. 10 mg/ml) was diluted with 0.025% Tween20 by factor 50 and 10 μl of this solution was pipetted into a microtiter plate (96-well format). The nutrient broth containing the fungal spores/mycelia fragments was then added to give an end concentration of the tested compound. The test plates were incubated in the dark at 24° C. and 96% rh. The inhibition of fungal growth was determined photometrically and visually after 2-4 days, depending on the pathosystem, and percent antifungal activity relative to the untreated check was calculated.
Monographella nivalis (Microdochium nivale)/Liquid Culture:
as §2

Gaeumannomyces graminis = Gaeumannomyces graminis liquid culture growth inhibition; conditions: Gaeumannomyces graminis, read-out: Compound 1.001 inhibition (%), in PDB
Procedure: as §1, §3
Gaeumannomyces graminis/Liquid Culture:
Mycelial fragments of the fungus from cryogenic storage were directly mixed into nutrient broth (PDB potato dextrose broth). After placing a (DMSO) solution of test compound into a microtiter plate (96-well format), the nutrient broth containing the fungal spores was added.

[2] = tested on: Mycosphaerella graminicola (Septoria tritici); assay: Mycosphaerella graminicola (Septoria tritici) liquid culture growth inhibition; conditions: for inhibition at 0.0008 ppm / inhibition at 0.0016 ppm / inhibition at 0.0031 ppm: Zymoseptoria tritici; for inhibition at 0.0008 ppm: read-out: Compound 1.001 inhibition (%), 0.0008 ppm; for inhibition at 0.0016 ppm: read-out: Compound 1.001 inhibition (%), 0.0016 ppm; for inhibition at 0.0031 ppm: read-out: Compound 1.001 inhibition (%), 0.0031 ppm
Procedure: as §1, §3
Mycosphaerella graminicola (Septoria tritici)/Liquid Culture:
as §2

[3] = tested on: Botryotinia fuckeliana (Botrytis cinerea); assay: Botryotinia fuckeliana (Botrytis cinerea) liquid culture growth inhibition; conditions: for inhibition at 0.0016 ppm: read-out: Compound 1.001 inhibition (%), 0.0016 ppm; for inhibition at 0.0125 ppm: read-out: Compound 1.001 inhibition (%), 0.0125 ppm
Procedure: as §1, §3
Botryotinia fuckeliana (Botrytis cinerea)/Liquid Culture:
Conidia of the fungus from cryogenic storage were directly mixed into nutrient broth (Vogels broth). After placing a (DMSO) solution of test compound into a microtiter plate (96-well format), the nutrient broth containing the fungal spores was added.

Pythium ultimum = Pythium ultimum (seedling damping off) liquid culture growth inhibition; conditions: Globisporangium ultimum, read-out: Compound 1.001 inhibition (%), PDB
Procedure: as §1, §3
Pythium ultimum Seedling Damping Off)/Liquid Culture:
Mycelia fragments and oospores of a newly grown liquid culture of the fungus were directly mixed into nutrient broth (PDB potato dextrose broth). After placing a (DMSO) solution of the test compounds into a microtiter plate (96-well format), the nutrient broth containing the fungal mycelia/spore mixture was added.

Fusarium culmorum = Fusarium culmorum liquid culture growth inhibition; conditions: for inhibition at 0.025 ppm: read-out: Compound 1.001 inhibition (%), 0.0250 ppm; for inhibition at 0.05 ppm: read-out: Compound 1.001 inhibition (%), 0.0500 ppm
Procedure: as §1, §3
Fusarium culmorum/Liquid Culture:
as §2

[4] = Alternaria solani, PDB, Table 7
[5] = Alternaria solani, PDB, Table 9
[6] = Alternaria solani, PDB, Table 11
[7] = Alternaria solani, PDB, Table 13
[8] = Botrytis cinerea, Vogels Broth, Table 6
[9] = Botrytis cinerea, in Vogels Broth
[10] = Fusarium culmorum, PDB, Table 4

`CON(C(=O)c1cn(C)nc1C(F)F)C(C)Cc1c(Cl)cc(Cl)cc1Cl` (stereo not drawn) [Compound 1.001, 3-(difluoromethyl)-N-methoxy-1-methyl-N-[1-methyl-2-(2,4,6-trichlorophenyl)ethyl]pyrazole-4-carboxamide] was tested, and the “Compound 1.001 inhibition (%)” value (Alternaria solani; 0.0016 ppm, in PDB) was 74%, the inhibition at 0.0004 ppm (Alternaria solani; Alternaria solani, read-out: Compound 1.001 inhibition (%), 0.0004 ppm, in PDB) was 21% and the inhibition at 0.0008 ppm (Alternaria solani; [4]) was 36%. The inhibition at 0.0008 ppm (Alternaria solani; [5]) was 37%, the inhibition at 0.0008 ppm (Alternaria solani; [6]) was 42% and the inhibition at 0.0008 ppm (Alternaria solani; [7]) was 51%. For the same compound, the inhibition at 0.0016 ppm (Alternaria solani; [4]) was 57%, the inhibition at 0.0016 ppm (Alternaria solani; [5]) was 64% and the inhibition at 0.0016 ppm (Alternaria solani; [6]) was 68%. It also gave an inhibition at 0.0016 ppm (Alternaria solani; [7]) of 69%, an inhibition at 0.0016 ppm (Alternaria solani; Alternaria solani, in PDB) of 65% and an inhibition at 0.0031 ppm (Alternaria solani; [4]) of 81%. The inhibition at 0.0031 ppm (Alternaria solani; [7]) was 82%, the “Compound 1.001 inhibition (%)” value ([1]; 0.0008 ppm, in PDB) was 3% and the “Compound 1.001 inhibition (%)” value ([1]; 0.0250 ppm, in PDB) was 5%. For the same compound, the “Compound 1.001 inhibition (%)” value ([1]; 0.0500 ppm, in PDB) was 48%, the inhibition at 0.0004 ppm ([1]; Monographella nivalis, read-out: Compound 1.001 inhibition (%), 0.0004 ppm, PDB, Table 5) was 0% and the inhibition at 0.0008 ppm ([1]; Monographella nivalis, read-out: Compound 1.001 inhibition (%), 0.0008 ppm, PDB, Table 5) was 0%. It also gave an inhibition at 0.0008 ppm ([1]; Monographella nivalis, read-out: Compound 1.001 inhibition (%), 0.0008 ppm, in PDB) of 2%, an inhibition at 0.0016 ppm ([1]; Monographella nivalis, read-out: Compound 1.001 inhibition (%), 0.0016 ppm, PDB, Table 5) of 0% and an inhibition at 0.0016 ppm ([1]; Monographella nivalis, read-out: Compound 1.001 inhibition (%), 0.0016 ppm, in PDB) of 0%. It also gave an inhibition at 0.0031 ppm ([1]; Monographella nivalis, read-out: Compound 1.001 inhibition (%), 0.0031 ppm, PDB, Table 5) of 0%, an inhibition at 0.0125 ppm ([1]; Monographella nivalis, read-out: Compound 1.001 inhibition (%), 0.0125 ppm, in PDB) of 0% and an inhibition at 0.05 ppm ([1]; Monographella nivalis, read-out: Compound 1.001 inhibition (%), 0.0500 ppm, in PDB) of 51%. For the same compound, the inhibition at 0.0004 ppm ([1]; Monographella nivalis, read-out: Compound 1.001 inhibition (%), compound 1.001 alone at 0.0004 ppm, in PDB) was 4%, the inhibition at 0.0008 ppm ([1]; Monographella nivalis, read-out: Compound 1.001 inhibition (%), compound 1.001 alone at 0.0008 ppm, in PDB) was 1% and the inhibition at 0.0016 ppm ([1]; Monographella nivalis, read-out: Compound 1.001 inhibition (%), compound 1.001 alone at 0.0016 ppm, in PDB) was 0%. It also gave an inhibition at 0.0063 ppm ([1]; Monographella nivalis, read-out: Compound 1.001 inhibition (%), compound 1.001 alone at 0.0063 ppm, in PDB (Table 38)) of 0%, an inhibition at 0.0125 ppm ([1]; Monographella nivalis, read-out: Compound 1.001 inhibition (%), compound 1.001 alone at 0.0125 ppm, in PDB) of 0% and an inhibition at 0.0125 ppm ([1]; Monographella nivalis, read-out: Compound 1.001 inhibition (%), compound 1.001 alone at 0.0125 ppm, in PDB (Table 38)) of 0%. For the same compound, the inhibition at 0.025 ppm (Gaeumannomyces graminis; 0.0250 ppm) was 0%, the inhibition at 0.05 ppm (Gaeumannomyces graminis; 0.0500 ppm) was 0% and the inhibition at 0.2 ppm (Gaeumannomyces graminis; 0.2000 ppm) was 0%. The “Compound 1.001 inhibition (%)” value ([2]; 0.0016 ppm, in PDB) was 33%, the “Compound 1.001 inhibition (%)” value ([2]; 0.0031 ppm, in PDB) was 82% and the inhibition at 0.0008 ppm ([2]; PDB, Table 8) was 15%. For the same compound, the inhibition at 0.0008 ppm ([2]; in PDB) was 19%, the inhibition at 0.0016 ppm ([2]; PDB, Table 8) was 34% and the inhibition at 0.0016 ppm ([2]; PDB, Table 12) was 54%. For the same compound, the inhibition at 0.0016 ppm ([2]; PDB, Table 14) was 47%, the inhibition at 0.0031 ppm ([2]; PDB, Table 8) was 81% and the inhibition at 0.0031 ppm ([2]; in PDB) was 83%. The “Compound 1.001 inhibition (%)” value ([3]; 0.0016 ppm, in Vogels Broth) was 33% and 29%, the “Compound 1.001 inhibition (%)” value ([3]; 0.0031 ppm, in Vogels Broth) was 54% and the “Compound 1.001 inhibition (%)” value ([3]; 0.0063 ppm, in Vogels Broth) was 62% and 38%. It also gave an inhibition at 0.0004 ppm ([3]; Botrytis cinerea, read-out: Compound 1.001 inhibition (%), 0.0004 ppm, in Vogels Broth) of 8%, an inhibition at 0.0008 ppm ([3]; Botrytis cinerea, read-out: Compound 1.001 inhibition (%), 0.0008 ppm, in Vogels Broth) of 21% and an inhibition at 0.0016 ppm [3, 8] of 16%. The inhibition at 0.0016 ppm [3, 9] was 26%, the inhibition at 0.0031 ppm ([3]; Botrytis cinerea, read-out: Compound 1.001 inhibition (%), 0.0031 ppm, Vogels Broth, Table 6) was 49% and the inhibition at 0.0031 ppm ([3]; Botrytis cinerea, read-out: Compound 1.001 inhibition (%), 0.0031 ppm, in Vogels Broth) was 44%. It also gave an inhibition at 0.0063 ppm ([3]; Botrytis cinerea, read-out: Compound 1.001 inhibition (%), 0.0063 ppm, Vogels Broth, Table 6) of 61%, an inhibition at 0.0125 ppm [3, 8] of 79% and an inhibition at 0.0125 ppm [3, 9] of 79%. It also gave an inhibition at 0.0031 ppm ([3]; Botrytis cinerea, read-out: Compound 1.001 inhibition (%), compound 1.001 alone at 0.0031 ppm, in Vogels Broth) of 40%, an inhibition at 0.0063 ppm ([3]; Botrytis cinerea, read-out: Compound 1.001 inhibition (%), compound 1.001 alone at 0.0063 ppm, in Vogels Broth) of 60% and an inhibition at 0.0016 ppm (Pythium ultimum; 0.0016 ppm, Table 10) of 0%. For the same compound, the inhibition at 0.0031 ppm (Pythium ultimum; 0.0031 ppm, Table 10) was 0%, the inhibition at 0.0063 ppm (Pythium ultimum; 0.0063 ppm, Table 3) was 11% and the inhibition at 0.0125 ppm (Pythium ultimum; 0.0125 ppm, Table 3) was 0%. The inhibition at 0.025 ppm (Pythium ultimum; 0.0250 ppm, Table 3) was 0%, the inhibition at 0.05 ppm (Pythium ultimum; 0.0500 ppm, Table 3) was 0% and the inhibition at 0.1 ppm (Pythium ultimum; 0.1000 ppm, Table 3) was 2%. The inhibition at 0.2 ppm (Pythium ultimum; 0.2000 ppm, Table 3) was 0%, the “Compound 1.001 inhibition (%)” value (Fusarium culmorum; 0.0250 ppm, in PDB) was 27% and 34% and 29% and the “Compound 1.001 inhibition (%)” value (Fusarium culmorum; 0.0500 ppm, in PDB) was 54% and 53%. The “Compound 1.001 inhibition (%)” value (Fusarium culmorum; 0.1000 ppm, in PDB) was 57%, the “Compound 1.001 inhibition (%)” value (Fusarium culmorum; 0.2000 ppm, in PDB) was 59% and 57% and the inhibition at 0.0016 ppm (Fusarium culmorum; Fusarium culmorum, read-out: Compound 1.001 inhibition (%), 0.0016 ppm, PDB, Table 4) was 7%. The inhibition at 0.0031 ppm (Fusarium culmorum; Fusarium culmorum, read-out: Compound 1.001 inhibition (%), 0.0031 ppm, PDB, Table 4) was 19%, the inhibition at 0.0063 ppm (Fusarium culmorum; Fusarium culmorum, read-out: Compound 1.001 inhibition (%), 0.0063 ppm, PDB, Table 4) was 14% and the inhibition at 0.0125 ppm (Fusarium culmorum; Fusarium culmorum, read-out: Compound 1.001 inhibition (%), 0.0125 ppm, PDB, Table 4) was 20%. The inhibition at 0.025 ppm (Fusarium culmorum; [10]) was 38%, the inhibition at 0.025 ppm (Fusarium culmorum; Fusarium culmorum, in PDB) was 24% and the inhibition at 0.05 ppm (Fusarium culmorum; [10]) was 46%. It also gave an inhibition at 0.05 ppm (Fusarium culmorum; Fusarium culmorum, in PDB) of 49%, an inhibition at 0.1 ppm (Fusarium culmorum; Fusarium culmorum, read-out: Compound 1.001 inhibition (%), 0.1000 ppm, in PDB) of 51% and an inhibition at 0.2 ppm (Fusarium culmorum; Fusarium culmorum, read-out: Compound 1.001 inhibition (%), 0.2000 ppm, in PDB) of 55%.
